Experiment: Average particle diameter of the liposomes in each preparation (Zetasizer Nano ZS)
Assay type: physicochemical
Conditions: for Particle diameter of Preparetion: liposome preparation of Example 118: compound/PEG-DMPE/DSPC/cholesterol with apo-b siRNA; for average particle diameter of the liposomes in the preparation: preparations of Comparative Examples 1 to 8, made as in Example 118 with apo-b siRNA
Description: Preparations were produced using the compounds obtained in Examples 1 to 117, as follows.
Anti-APO-B siRNA was used as the nucleic acid. Anti-APO-B siRNA suppresses expression of an apolipoprotein-B (hereinafter, “apo-b”) gene and has a sense strand with the base sequence 5′-GmUCAmUCACACmUGAAmUACCAAmU-3′ (the sugars attached to the bases appended with m are 2′-O-methyl-substituted riboses), and an antisense strand with the base sequence 5′-[…]-3′ (the 5′-end is phosphorylated). The sense strand and the antisense strand were obtained from Nippon EGT or Hokkaido System Science Co., Ltd., and annealed to prepare the nucleic acid (hereinafter, “apo-b siRNA”).
A solution comprising the constituent components of a lipid membrane was prepared by dissolving each of the weighed samples in 90 vol % ethanol in 8.947/1.059/5.708/13.697 mmol/L [compounds 1 to 117 obtained in Examples 1 to 117/1,2-dimyristoyl-sn-glycero-3-phosphoethanolamine-A-(methoxy(polyethylene glycol)-2000) (PEG-DMPE, N-(carbonylmethoxypolyethylene glycol 2000)-1,2-dimyristoyl-sn-glycero-3-phosphoethanolamine sodium salt, NOF Corporation)/distearoylphosphatidyl choline (DSPC, 1,2-distearoyl-sn-glycero-3-phosphocholine, NOF Corporation)/cholesterol (Avanti Polar Lipids)]. Separately, apo-b siRNA/distilled water (24 mg/mL) was diluted with a Tris-EDTA buffer (200 mM Tris-HCl, 20 mM EDTA, Invitrogen) and a 20 mM citric acid buffer (pH 5.0) to prepare a 1.5 mg/mL apo-b siRNA aqueous solution (2 mM Tris-EDTA buffer, pH 5.0).
The resulting lipid solution was heated to 37° C., and a […] portion was transferred to a preparation container. The apo-b siRNA aqueous solution (100 μL) was then added thereto while being stirred. Then, a 20 mM citric acid buffer (containing 300 mM NaCl, pH 6.0; 200 μL) was added to the lipid nucleic acid mixed suspension (200 μL) while being stirred. The siRNA concentration was brought to 10 μM by dropping a Dulbecco phosphate buffer (DPBS, Invitrogen; 662 μL), and preparations (compositions comprising compounds 1 to 117 and the nucleic acid) were obtained.
The average particle diameter of the liposomes in each preparation was measured with a particle diameter measurement device (Malvern; Zetasizer Nano ZS).

Particle diameter of Preparetion [nm] | average particle diameter of the liposomes in the preparation [nm] | Compound
148.9 | – | CCCCC/C=C\C/C=C\CCCCCCCCO[C@@H]1CN(CC(C)O)C[C@H]1OCCCCCCCC/C=C\C/C=C\CCCCC (mixture of isomers) [Compound 54, 1-((3R,4R)-3,4-bis((9Z,12Z)-Octadec-9,12-dienyloxy)pyrrolidine-1-yl)propan-2-ol]
150.0 | – | CCCCC/C=C\C/C=C\CCCCCCCCO[C@H]1CNC[C@@H]1OCCCCCCCC/C=C\C/C=C\CCCCC [Compound 43, (3S,4S)-3,4-bis((9Z,12Z)-Octadec-9,12-dienyloxy)pyrrolidine]
129.2 | – | CCCCC/C=C\C/C=C\CCCCCCCCO[C@H]1CN(C)C[C@@H]1OCCCCCCCC/C=C\C/C=C\CCCCC [Compound 50, (3S,4S)-1-Methyl-3,4-bis((9Z,12Z)-octadec-9,12-dienyloxy)pyrrolidine]
152.4 | – | CCCCC/C=C\C/C=C\CCCCCCCC(=O)OC1CN(CC(O)CO)C[C@H]1OC(=O)CCCCCCC/C=C\C/C=C\CCCCC (stereo partly drawn) [Compound 53, (3R,4R)-1-(2,3-diHydroxypropyl)pyrrolidine-3,4-diyl di((9Z,12Z)-octadec-9,12-enoate)]
139.6 | – | CCCCC/C=C\C/C=C\CCCCCCCCOC1CN(CC(O)COC)C[C@H]1OCCCCCCCC/C=C\C/C=C\CCCCC (stereo partly drawn) [Compound 55, 1-(3R,4R)-3,4-bis(((9Z,12Z)-Octadec-9,12-dienyloxy)pyrrolidine-1-yl)-3-methoxypropan-2-ol]
151.8 | – | CCCCC/C=C\C/C=C\CCCCCCCCOC1CN(CCC(=O)N(C)C)C[C@H]1OCCCCCCCC/C=C\C/C=C\CCCCC (stereo partly drawn) [Compound 58, 3-((3R,4R)-3,4-bis((9Z,12Z)-Octadec-9,12-dienyloxy)pyrrolidin-1-yl)-N,N-dimethyl propanamide]
116.7 | – | CCCCC/C=C\C/C=C\CCCCCCCCOC1CN(CCCN(C)C)C[C@H]1OCCCCCCCC/C=C\C/C=C\CCCCC (stereo partly drawn) [Compound 59, (3R,4R)-1-(3-N,N-Dimethylaminopropyl)-3,4-bis((9Z,12Z)-octadec-9,12-dienyloxy)pyrrolidine]
128.9 | – | CCCCC/C=C\C/C=C\CCCCCCCC(=O)OC1CN(C(=O)CN)C[C@H]1OC(=O)CCCCCCC/C=C\C/C=C\CCCCC (stereo partly drawn) [Compound 65, (3R,4R)-1-(2-aminoacetyl)pyrrolidine-3,4-diyl di((9Z,12Z)-octadec-9,12-enoate)]
137.4 | – | CCCCC/C=C\C/C=C\CCCCCCCC(=O)OC1CN(C(=O)[C@@H](N)CCCCN)C[C@H]1OC(=O)CCCCCCC/C=C\C/C=C\CCCCC (stereo partly drawn) [Compound 66, (3R,4R)-1-((S)-2,6-Diaminohexanoyl)pyrrolidine-3,4-diyl di((9Z,12Z)-octadec-9,12-enoate)]
152.8 | – | CCCCC/C=C\C/C=C\CCCCCCCCCCOCC1CN(C(=O)[C@@H](N)CCCCN)C[C@H]1COCCCCCCCCCC/C=C\C/C=C\CCCCC (stereo partly drawn) [Compound 115, trans-1-((S)-2,6-Diaminohexanoyl)-3,4-bis(((11Z,14Z)-icos-11,14-dienyloxy)methyl) pyrrolidine]
– | 141.0 | CCCCC/C=C\C/C=C\CCCCCCCC(=O)O[C@@H]1CN(C)C[C@H]1OC(=O)CCCCCCC/C=C\C/C=C\CCCCC [Compound A-3, (3R,4R)-1-Methylpyrrolidine-3,4-diyl di((9Z,12Z)-octadec-9,12-dienoate), reference compound]
– | 131.1 | CCCCCCCC/C=C\CCCCCCCC(=O)O[C@@H]1CN(C)C[C@H]1OC(=O)CCCCCCC/C=C\CCCCCCCC [Compound A-4, (3R,4R)-1-Methylpyrrolidine-3,4-diyl di((Z)-octadec-9-enoate), reference compound]
– | 136.4 | CCCCC/C=C\C/C=C\CCCCCCCC(=O)OCCN(C)CCOC(=O)CCCCCCC/C=C\C/C=C\CCCCC [Compound A-5, N-Methyl-N,N-bis(2-((9Z,12Z)-1-oxooctadec-9,12-dienyloxy)ethyl)amine, reference compound]
– | 139.5 | CCCCCCCC/C=C\CCCCCCCC(=O)OCCN(C)CCOC(=O)CCCCCCC/C=C\CCCCCCCC [Compound A-6, N-Methyl-N,N-bis(2-((Z)-1-oxooctadec-9-enyloxy)ethyl)amine, reference compound]
– | 167.8 | CCCCC/C=C\C/C=C\CCCCCCCCO[C@@H]1CN(Cc2ccccc2)C[C@H]1OCCCCCCCC/C=C\C/C=C\CCCCC [Compound VI-3, (3R,4R)-1-Benzyl-3,4-bis((9Z,12Z)-octadec-9,12-dienyloxy)pyrrolidine, reference compound]
– | 157.8 | CCCCCCCC/C=C\CCCCCCCCO[C@@H]1CN(Cc2ccccc2)C[C@H]1OCCCCCCCC/C=C\CCCCCCCC [Compound VI-4, (3R,4R)-1-Benzyl-3,4-bis((Z)-octadec-9-enyloxy)pyrrolidine, reference compound]

Compound | Particle diameter of Preparetion [nm] | average particle diameter of the liposomes in the preparation [nm]
CCCCCCCC/C=C\CCCCCCCC(=O)OCC(C[N+](C)(C)C)OC(=O)CCCCCCC/C=C\CCCCCCCC.[Cl-] (centres unmarked) [DOTAP, N-(2,3-di-(9-(Z)-octadecenoyloxy))-prop-1-yl-N,N,N-trimethylammonium chloride, reference compound] | – | 104.0

From patent US9845306B2, “Cationic lipid” (Kyowa Hakko Kirin Co., Ltd., priority 2010, dated 2017)
